Laboratory results reported in US8753841B2, “Enzyme that catalyzes a peptide-forming reaction from a carboxy component and an amine component, microbe producing the same, and a method of producing a dipeptide using the enzyme or microbe” (Ajinomoto Co., Inc., priority 2002, dated 2014).

How the values were obtained:
[1] = system: Empedobacter brevis strain FERM BP-8113 microbial cells; assay: Production of peptide using microbial cells of Empedobacter brevis; assay type: cell-based; details: 1 mL 100 g/L cell suspension + 1 mL buffer with 200 mM carboxy component, 400 mM amino acid, 10 mM EDTA, pH 9.0, 18° C., 2 hours
Method: A 50 mL medium (pH 6.2) containing 5 grams (g) of glucose, 5 g of ammonium sulfate, 1 g of monopotassium phosphate, 3 g of dipotassium phosphate, 0.5 g of magnesium sulfate, 10 g of yeast extract and 10 g of peptone in 1 liter (L) was transferred to a 500 mL Sakaguchi flask and sterilized at 115° C. for 15 minutes.
Microbial cells were collected by centrifuging (10,000 rounds per minute (rpm), 15 minutes) the culture broth obtained in Example 1, followed by suspending them to a concentration of 100 g/L in 100 mM borate buffer (pH 9.0) containing 10 mM EDTA. After respectively adding 1 mL of the suspension to 1 mL each of 100 mM borate buffer solutions (pH 9.0) containing 10 mM EDTA, 200 mM of the following carboxy components, and 400 mM of the following amino acids to make a final volume of 2 mL, the reaction was carried out at 18° C. for 2 hours.

[2] = system: peptide-forming enzyme from Empedobacter brevis strain FERM BP-8113; assay: Substrate specificity of enzyme (peptide production from carboxy and amine components); assay type: biochemical; design: key to Formed peptide (mM): +: those peptides for which production was confirmed but which were unable to be quantified due to the absence of a standard; a trace amount; details: pH 9.0, 25° C.; for Formed peptide / Formed peptide (mM): L-amino acid methyl ester hydrochloride 100 mM, 3 hours; for L-Ala-L-Gln formed: carboxy component 100 mM, 200 mM L-glutamine, 2 hours
Description: Ester specificity was examined in the case of using L-amino acid ester for the carboxy component. […] HCl represents hydrochloride in Table 4.
Peptide production was examined in the case of using L-alanine methyl ester for the carboxy component and using various L-amino acids for the amine component.
Peptide production was examined in the case of using various types of L-amino acid methyl esters for the carboxy component and using L-glutamine for the amine component. […] Furthermore, Tween-80 was added to the reaction system to a final concentration of 0.1% in the case of using L-Trp-OMe and L-Tyr-OMe.

[3] = system: enzyme derived from Sphingobacterium sp. strain FERM BP-8124; assay: Substrate specificity of enzyme derived from Sphingobacterium sp.; assay type: biochemical; design: key to Produced peptide (mM): +: those peptides for which production was confirmed but which were unable to be quantified due to the absence of a standard; a trace amount; details: carboxy component 100 mM, 0.33 units enzyme, pH 9.0, 25° C., 1.5 hours
[4] = system: peptide-forming enzyme from Empedobacter brevis strain FERM BP-8113; assay: Substrate specificity of enzyme (peptide production from carboxy and amine components); assay type: biochemical; design: key: +: those peptides for which production was confirmed but which were unable to be quantified due to the absence of a standard; a trace amount; details: 0.1 unit enzyme, 25° C., reaction time 3 hr
[5] = system: peptide-forming enzyme from Empedobacter brevis strain FERM BP-8113; assay: Enzyme inhibitors: effect on L-alanyl-L-glutamine production by the Mono S fraction enzyme; assay type: biochemical; details: for inhibition of the enzyme by serine enzyme inhibitors (in words): pH 9.0, 25° C.
[6] = system: peptide-forming enzyme from Empedobacter brevis strain FERM BP-8113; assay: Substrate specificity of enzyme (peptide production from carboxy and amine components); assay type: biochemical; details: pH 9.0, 25° C., 3 hours; for Formed peptide: L-amino acid amide hydrochloride 100 mM as carboxy component, L-amino acid 150 mM
[7] = Table 15-3, amine component 150 mM
[8] = inhibitor at 10 mM, borate buffer pH 9.0, 25° C., 5 minutes, 100 = absence of enzyme inhibitor
[9] = Table 15-1, amine component 150 mM
[10] = Table 15-4, amine component 150 mM

enzyme derived from Sphingobacterium sp. strain FERM BP-8124, sequence (as listed by the source): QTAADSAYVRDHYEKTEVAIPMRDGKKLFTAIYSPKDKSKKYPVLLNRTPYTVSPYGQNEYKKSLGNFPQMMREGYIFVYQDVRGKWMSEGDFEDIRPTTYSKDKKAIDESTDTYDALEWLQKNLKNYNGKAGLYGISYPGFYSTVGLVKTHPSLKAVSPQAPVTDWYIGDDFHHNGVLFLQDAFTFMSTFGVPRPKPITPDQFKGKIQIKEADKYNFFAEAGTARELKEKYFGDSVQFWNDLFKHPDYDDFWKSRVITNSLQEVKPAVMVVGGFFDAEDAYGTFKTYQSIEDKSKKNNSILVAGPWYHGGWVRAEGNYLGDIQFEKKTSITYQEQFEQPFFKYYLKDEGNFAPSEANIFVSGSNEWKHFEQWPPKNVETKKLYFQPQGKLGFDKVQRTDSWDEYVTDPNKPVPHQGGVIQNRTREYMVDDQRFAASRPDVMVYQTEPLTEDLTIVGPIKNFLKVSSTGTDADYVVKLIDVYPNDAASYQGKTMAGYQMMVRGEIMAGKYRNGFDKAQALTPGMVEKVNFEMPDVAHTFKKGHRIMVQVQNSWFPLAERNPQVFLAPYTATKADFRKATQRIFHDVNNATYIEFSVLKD

With L-Met-L-Phe the “Formed peptide” value [1] was 28.5 mM, the “Formed peptide” value ([2]; L-amino acid 150 mM) was 34.0 mM and the “Produced peptide” value [3, 7] was 8.9 mM.
H—N—Me-Ala-Phe-OH was tested, and the “Produced peptide (mM)” value ([4]; carboxy component 100 mM, amine component 150 mM) was “tr”.
In the case of L-Met-L-Ser, the “Formed peptide” value ([2]; L-amino acid 150 mM) is reported as 12.8 mM and the “Produced peptide” value [3, 7] is reported as 25.3 mM.
For L-Thr-L-Val, the “Formed peptide” value ([2]; L-amino acid 150 mM) was 0.7 mM and the “Produced peptide” value [3, 7] was 1.3 mM.
With L-Val-L-Ser the “Formed peptide” value ([2]; L-amino acid 150 mM) was 30.8 mM and the “Produced peptide” value [3, 7] was 31.9 mM.
In the case of N=C(N)Nc1ccc(C(=O)Oc2ccc([N+](=O)[O-])cc2)cc1 [p-Nitrophenyl-p′-guanidino benzoate, p-nitrophenyl-p′-guanidinobenzoate], the “Relative activity of L-Ala-L-Gln production (%)” value (shortened to “Relative activity … (%)”) [5, 8] is reported as 0.1% and the “inhibition of the enzyme by serine enzyme inhibitors (in words)” value ([5]; inhibitor at 10 mM, 5 minutes) is reported as “inhibited”.
Gly-L-Ser was tested, and the “Formed peptide” value ([2]; L-amino acid 150 mM) was 44.2 mM and the “Produced peptide” value [3, 7] was 53.8 mM.
For L-Ala-L-Ser, the “Formed peptide” value [1] was 51.3 mM and the “Produced peptide” value [3, 9] was 43.8 mM.
For L-Ser-L-Gln, the “Formed peptide” value ([2]; 150 mM L-glutamine) was 24.0 mM and the “Produced peptide” value ([3]; Table 15-2, L-Gln 150 mM) was 12.9 mM.
For L-Ile-L-Gln, the “Formed peptide” value ([2]; 150 mM L-glutamine) was 8.4 mM and the “Produced peptide” value ([3]; Table 15-2, L-Gln 150 mM) was 6.4 mM.
In the case of O=C(O)CI [Monoiodoacetate], the “Relative activity … (%)” value ([5]; pH 9) is reported as 101%.
L-Ile-L-Met was tested, and the “Formed peptide” value [1] was 8.3 mM, the “Formed peptide” value ([2]; L-amino acid 150 mM) was 10.0 mM and the “Produced peptide” value [3, 7] was 5.1 mM.
With H—Cl—F-Phe-H-Gln-OH the “Produced peptide (mM)” value ([4]; carboxy component 25 mM, amine component 50 mM) was “tr”.
With L-Ala-L-Leu the “Formed peptide” value [1] was 38.2 mM and the “Produced peptide” value [3, 9] was 33.0 mM.
With O=C(O)CN(CCN(CC(=O)O)CC(=O)O)CC(=O)O [EDTA, ethylene diamine tetraacetic acid] the “Relative activity … (%)” value [5, 8] was 96%.
In the case of L-Lys-L-Gln, the “Formed peptide (mM)” value ([2]; 150 mM L-glutamine) is reported as “+”.
L-Arg-L-Met was tested, and the “Formed peptide” value ([2]; L-amino acid 150 mM) was 0.7 mM and the “Produced peptide (mM)” value [3, 7] was “tr”.
α-L-Asp-L-Gln was tested, and the “Formed peptide (mM)” value ([2]; 150 mM L-glutamine) was “tr” and the “Produced peptide” value ([3]; Table 15-2, L-Gln 150 mM) was 0.05 mM.
L-Lys-L-Met was tested, and the “Formed peptide” value ([2]; L-amino acid 150 mM) was 6.8 mM.
L-Thr-Gly was tested, and the “Formed peptide” value ([2]; L-amino acid 150 mM) was 9.4 mM and the “Produced peptide” value [3, 7] was 0.4 mM.
L-Arg-L-Gln was tested, and the “Formed peptide” value ([2]; 150 mM L-glutamine) was 7.1 mM and the “Produced peptide” value ([3]; Table 15-2, L-Gln 150 mM) was 17.2 mM.
L-Thr-L-Gln was tested, and the “Formed peptide” value ([2]; 150 mM L-glutamine) was 81.9 mM, the “Produced peptide” value ([3]; Table 15-2, L-Gln 150 mM) was 36.1 mM and the “Formed peptide” value [6] was 0.3 mM.
For L-Ser-L-Phe, the “Formed peptide” value ([2]; L-amino acid 150 mM) was 20.3 mM and the “Produced peptide” value [3, 7] was 4.3 mM.
L-Thr-L-Met was tested, and the “Formed peptide” value ([2]; L-amino acid 150 mM) was 38.6 mM and the “Produced peptide” value [3, 7] was 28.9 mM.
For COC(=O)[C@H](C)N.Cl [L-Alanine methyl ester•HCl, L-alanine methyl ester hydrochloride], the “L-Ala-L-Gln formed” value [2] was 84.3 mM.
Gly-L-His was tested, and the “Formed peptide” value [1] was 22.1 mM, the “Formed peptide” value ([2]; L-amino acid 150 mM) was 31.6 mM and the “Produced peptide” value [3, 7] was 36.2 mM.
With L-Tyr-L-Gln the “Formed peptide” value ([2]; 150 mM L-glutamine) was 3.4 mM and the “Produced peptide” value ([3]; Table 15-2, L-Gln 150 mM) was 0.6 mM.
O=S(=O)(F)Cc1ccccc1 [Phenylmethylsulfonyl fluoride] was tested, and the “Relative activity … (%)” value [5, 8] was 115% and the “inhibition of the enzyme by serine enzyme inhibitors (in words)” value ([5]; inhibitor at 10 mM, 5 minutes) was “not inhibited”.
For L-Thr-L-Ala, the “Formed peptide” value ([2]; L-amino acid 150 mM) was 9.4 mM and the “Produced peptide” value [3, 7] was 5.8 mM.
With L-Met-L-Gln the “Formed peptide” value ([2]; 150 mM L-glutamine) was 12.0 mM and the “Produced peptide” value ([3]; Table 15-2, L-Gln 150 mM) was 32.6 mM.
L-Val-L-Phe was tested, and the “Formed peptide” value ([2]; L-amino acid 150 mM) was 6.1 mM and the “Produced peptide” value [3, 7] was 1.0 mM.
For L-Gln-L-Gln, the “Formed peptide” value ([2]; 150 mM L-glutamine) was 0.3 mM and the “Produced peptide” value ([3]; Table 15-2, L-Gln 150 mM) was 0.1 mM.
With Gly-L-Phe the “Formed peptide” value ([2]; L-amino acid 150 mM) was 44.0 mM, the “Produced peptide” value [3, 7] was 20.0 mM and the “Produced peptide” value ([6]; oligopeptide production, amount of enzyme 0.1 unit) was 17.3 mM.
With Gly-L-Gln the “Formed peptide” value ([2]; 150 mM L-glutamine) was 54.7 mM and the “Produced peptide” value ([3]; Table 15-2, L-Gln 150 mM) was 61.1 mM.
With L-Met-L-Met the “Formed peptide” value ([2]; L-amino acid 150 mM) was 25.0 mM and the “Produced peptide” value [3, 7] was 28.4 mM.
With L-Ser-L-Met the “Formed peptide” value ([2]; L-amino acid 150 mM) was 12.5 mM and the “Produced peptide” value [3, 7] was 7.6 mM.
For c1cnc2c(c1)ccc1cccnc12 [o-Phenanthroline], the “Relative activity … (%)” value [5, 8] was 96%.
In the case of L-Thr-L-Leu, the “Formed peptide” value [1] is reported as 23.0 mM, the “Formed peptide” value ([2]; L-amino acid 150 mM) is reported as 28.4 mM and the “Produced peptide” value [3, 7] is reported as 15.3 mM.
L-Ile-L-Ser was tested, and the “Formed peptide” value ([2]; L-amino acid 150 mM) was 17.2 mM and the “Produced peptide” value [3, 7] was 17.3 mM.
With L-Ala-L-Phe the “Formed peptide” value [1] was 62.4 mM and the “Produced peptide” value [3, 9] was 69.5 mM.
For L-Ala-L-Met, the “Formed peptide” value [1] was 68.3 mM, the “Produced peptide” value [3, 9] was 86.9 mM and the “Produced peptide (mM)” value [3, 10] was “tr”. For the same molecule, the “Formed peptide” value [6] was 3.4 mM.
For L-Val-L-Met, the “Formed peptide” value [1] was 10.5 mM, the “Formed peptide” value ([2]; L-amino acid 150 mM) was 10.3 mM and the “Produced peptide” value [3, 7] was 6.8 mM.
Gly-L-Lys was tested, and the “Formed peptide” value ([2]; L-amino acid 150 mM) was 9.8 mM and the “Produced peptide” value [3, 7] was 48.2 mM.
In the case of CCOC(=O)[C@H](C)N.Cl [L-Alanine ethyl ester•HCl], the “L-Ala-L-Gln formed” value [2] is reported as 91.5 mM.
C[C@H](N)C(=O)OC(C)(C)C.Cl [L-Alanine-t-butyl ester•HCl] was tested, and the “L-Ala-L-Gln formed” value [2] was 7.5 mM.
L-Phe-L-Gln was tested, and the “Formed peptide” value ([2]; 150 mM L-glutamine) was 0.9 mM, the “Produced peptide” value ([3]; Table 15-2, L-Gln 150 mM) was 0.8 mM and the “Formed peptide” value [6] was 0.2 mM.
With Gly-L-CySH the “Formed peptide” value ([2]; L-amino acid 150 mM) was 45.6 mM.
L-Ile-L-Phe was tested, and the “Formed peptide” value ([2]; L-amino acid 150 mM) was 5.2 mM and the “Produced peptide” value [3, 7] was 1.5 mM.
With L-Ala-L-Arg the “Formed peptide” value [1] was 72.1 mM and the “Produced peptide” value [3, 9] was 72.2 mM.
With CCN1C(=O)C=CC1=O [N-Ethyl maleimide] the “Relative activity … (%)” value [5, 8] was 110%.
For L-Ser-L-Ser, the “Formed peptide” value [1] was 29.0 mM, the “Formed peptide” value ([2]; L-amino acid 150 mM) was 38.0 mM and the “Produced peptide” value [3, 7] was 9.9 mM.
For L-Pro-L-Gln, the “Formed peptide” value ([2]; 150 mM L-glutamine) was 2.2 mM and the “Produced peptide” value ([3]; Table 15-2, L-Gln 150 mM) was 1.8 mM.
In the case of L-Val-L-Gln, the “Formed peptide” value ([2]; 150 mM L-glutamine) is reported as 15.4 mM and the “Produced peptide” value ([3]; Table 15-2, L-Gln 150 mM) is reported as 8.2 mM.
In the case of Gly-L-Arg, the “Formed peptide” value ([2]; L-amino acid 150 mM) is reported as 25.5 mM and the “Produced peptide” value [3, 7] is reported as 17.9 mM.
L-His-L-Met was tested, and the “Formed peptide” value ([2]; L-amino acid 150 mM) was 6.5 mM.
With L-Arg-L-Phe the “Formed peptide” value ([2]; L-amino acid 150 mM) was 1.9 mM and the “Produced peptide (mM)” value [3, 7] was “tr”.
For L-Ala-L-His, the “Formed peptide” value [1] was 52.1 mM, the “Produced peptide” value [3, 9] was 73.6 mM and the “Produced peptide (mM)” value [3, 10] was “tr”. The “Formed peptide” value [6] was 3.9 mM.
With L-Arg-L-Ser the “Formed peptide” value ([2]; L-amino acid 150 mM) was 3.6 mM and the “Produced peptide” value [3, 7] was 2.2 mM.
